Values after ≈ are worked out from the molar mass of the structure shown.
Tests used:
K. pneumoniae ATCC 13883 = test: Antibacterial activity: MIC/MBC, MIC with PAβN, disc-diffusion; format: cell-based, Klebsiella pneumoniae; conditions: Klebsiella pneumoniae, ATCC13883; K. pneumoniae ATCC 13883; read-out: MIC
Protocol: Direct antimicrobial activity was determined against the following standard strains: (1) Gram-positive cocci: methicillin-sensitive Staphylococcus aureus ATCC 6538P (MSSA), methicillin-resistant S. aureus subsp. aureus ATCC 43300 (MRSA), S. epidermidis ATCC 12228, Enterococcus faecium ATCC 6057, E. faecalis ATCC 29212, Bacillus subtilis ATCC 6633; (2) Gram-negative bacteria from Enterobacteriales order: Klebsiella pneumoniae ATCC 13883, Escherichia coli ATCC 25922, Enterobacter cloacae DSM 6234, Proteus mirabilis ATCC 12453, Serratia marcescens ATCC 13880; (3) Gram-negative non-fermentative rods: Acinetobacter baumannii ATCC 19606, Pseudomonas aeruginosa ATCC 27853, Stenotrophomonas maltophilia ATCC 12714, S. maltophilia ATCC 13637, Burkholderia cepacia ATCC 25416, Bordetella bronchiseptica ATCC 4617; (4) yeasts: Candida albicans ATCC 90028, C. krusei ATCC 6258, C. parapsilosis ATCC 22019, C. tropicalis (Castellani) Berkhout ATCC 750, C. tropicalis IBA 171, C. guilliermondii IBA 155, and Saccharomyces cerevisiae ATCC 9763. Moreover, 5 clinical strains of methicillin-resistant S. aureus were also included: NMI 664 K, NMI 1576 K, NMI 1712 K, NMI 1991 K, and NMI 2541 K. All strains were stored at −80 °C. Prior to testing, each bacterial strain was subcultured twice on tryptic soy agar TSA (bioMerieux) medium and yeast strains on Sabouraud dextrose agar (bioMerieux) for 24–48 h at 30 °C to ensure viability. The antimicrobial activity was evaluated as previously described[26] by the disc-diffusion method and the MIC determination assays according to the EUCAST (ref. [71] and [72]) and CLSI (ref. [53] and [73]) recommendations. Assessment of bactericidal (MBC) and fungicidal (MFC) activities was performed according to the CLSI recommendations.[54,74] […] The new benzosiloxaboroles were dissolved in DMSO (Sigma).
Considering that the MDR efflux pumps often contribute to Gram-negative rod resistance, the MIC values of studied agents, with or without the pump inhibitor, PAβN (20 μg mL^−1) (Sigma), were determined.[75] The MIC was determined using Mueller–Hinton II broth medium (MHB) (Becton Dickinson) by the broth microdilution method, according to the CLSI guideliness.[53] To minimize the influence of PAβN on the destabilization of bacterial cell covers, the tests were conducted in the presence of 1 mM MgSO4 (Sigma).[76] At least a 4-fold reduction in the MIC value after the addition of PAβN was considered significant.[56,77]

C. albicans ATCC 90028 = test: Antifungal activity: MIC/MFC, disc-diffusion; format: cell-based, Candida albicans; conditions: for diameter of inhibition zone: C. albicans ATCC 90028, (-) = zone not observed, paper discs 9 mm; for MIC: Candida albicans, ATCC90028, read-out: MIC
Protocol: (§1) Direct antimicrobial activity was determined against the following standard strains: (1) Gram-positive cocci: methicillin-sensitive Staphylococcus aureus ATCC 6538P (MSSA), methicillin-resistant S. aureus subsp. aureus ATCC 43300 (MRSA), S. epidermidis ATCC 12228, Enterococcus faecium ATCC 6057, E. faecalis ATCC 29212, Bacillus subtilis ATCC 6633; (2) Gram-negative bacteria from Enterobacteriales order: Klebsiella pneumoniae ATCC 13883, Escherichia coli ATCC 25922, Enterobacter cloacae DSM 6234, Proteus mirabilis ATCC 12453, Serratia marcescens ATCC 13880; (3) Gram-negative non-fermentative rods: Acinetobacter baumannii ATCC 19606, Pseudomonas aeruginosa ATCC 27853, Stenotrophomonas maltophilia ATCC 12714, S. maltophilia ATCC 13637, Burkholderia cepacia ATCC 25416, Bordetella bronchiseptica ATCC 4617; (4) yeasts: Candida albicans ATCC 90028, C. krusei ATCC 6258, C. parapsilosis ATCC 22019, C. tropicalis (Castellani) Berkhout ATCC 750, C. tropicalis IBA 171, C. guilliermondii IBA 155, and Saccharomyces cerevisiae ATCC 9763. Moreover, 5 clinical strains of methicillin-resistant S. aureus were also included: NMI 664 K, NMI 1576 K, NMI 1712 K, NMI 1991 K, and NMI 2541 K. All strains were stored at −80 °C. Prior to testing, each bacterial strain was subcultured twice on tryptic soy agar TSA (bioMerieux) medium and yeast strains on Sabouraud dextrose agar (bioMerieux) for 24–48 h at 30 °C to ensure viability. The antimicrobial activity was evaluated as previously described[26] by the disc-diffusion method and the MIC determination assays according to the EUCAST (ref. [71] and [72]) and CLSI (ref. [53] and [73]) recommendations. Assessment of bactericidal (MBC) and fungicidal (MFC) activities was performed according to the CLSI recommendations.[54,74] The following reference agents were used: fluconazole (in the case of fungi), linezolid (for Gram-positive bacteria), and nitrofurantoin (for Gram-negative rods). The new benzosiloxaboroles were dissolved in DMSO (Sigma).

[1] = system: Human normal lung fibroblasts MRC-5; test: MTT-based viability (cytotoxicity) assay; conditions: for IC50: Homo sapiens, MRC5, 48 h
Procedure, shortened: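 MRC-5 pd30 human lung fibroblasts in supplemented MEME at 37 °C, 5% CO2; viability by MTT, absorbance 570 nm, triplicate, as percent of control cells. Selectivity index taken as IC50/MIC against S. aureus MRSA strains.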

S. aureus ATCC 6538P = test: Antibacterial activity: MIC/MBC determination and disc-diffusion; format: cell-based, Staphylococcus aureus; conditions: S. aureus ATCC 6538P; for diameter of inhibition zone: disc-diffusion, — = zone not observed; for MIC / MBC: Staphylococcus aureus, ATCC6538P; for MIC: read-out: MIC; for MBC: read-out: MBC (first MBC where Eagle effect)
Protocol: as §1

SMILES | MIC (K. pneumoniae ATCC 13883) [µg/mL] | diameter of inhibition zone (C. albicans ATCC 90028) [mm] | MIC (C. albicans ATCC 90028) [µg/mL] | viability of MRC-5 ([1]; 6.25 µg·mL−1, 48 h) | viability of MRC-5 ([1]; 12.5 µg·mL−1, 48 h) | viability of MRC-5 ([1]; 25 µg·mL−1, 48 h) | viability of MRC-5 ([1]; 50 µg·mL−1, 48 h) | viability of MRC-5 ([1]; 100 µg·mL−1, 48 h) | viability of MRC-5 ([1]; 200 µg·mL−1, 48 h) | viability of MRC-5 ([1]; 400 µg·mL−1, 48 h) | IC50 [1] [µg/mL] | diameter of inhibition zone (S. aureus ATCC 6538P) [mm] | MIC (S. aureus ATCC 6538P) [µg/mL] | MBC (S. aureus ATCC 6538P) [µg/mL]
C[Si]1(C)OB(O)c2cc(F)c(SC3CC(=O)N(c4ccc(F)cc4)C3=O)c(F)c21 (stereo not shown) [Compound 14, 3-((5,7-Difluoro-3-hydroxy-1,1-dimethyl-1,3-dihydrobenzo[c][1,2,5]oxasilaborol-6-yl)thio)-1-(4-fluorophenyl)pyrrolidine-2,5-dione] | > 200 | 21 | 200 (≈ 457 µM) | 90.4±7.6 % of control ± SD | 88.8±5.4 % of control ± SD | 87.5±3.5 % of control ± SD | 80.3±7.5 % of control ± SD | 52.0±2.8 % of control ± SD | 27.3±3.2 % of control ± SD | 0.1±0.1 % of control ± SD | 133 (≈ 305 µM) | 22 | 50 (≈ 114 µM) | –
C[Si]1(C)OB(O)c2ccc(SC3CC(=O)N(c4ccc(F)cc4)C3=O)c(F)c21 (stereo not shown) [Compound 15, 3-((7-Fluoro-3-hydroxy-1,1-dimethyl-1,3-dihydrobenzo[c][1,2,5]oxasilaborol-6-yl)thio)-1-(4-fluorophenyl)pyrrolidine-2,5-dione] | > 200 | 19 | 200 (≈ 477 µM) | 89.2±0.3 % of control ± SD | 77.9±4.3 % of control ± SD | 73.7±0.8 % of control ± SD | 69.9±1.8 % of control ± SD | 65.0±0.1 % of control ± SD | 41.5±0.7 % of control ± SD | 6.7±0.1 % of control ± SD | 145 (≈ 346 µM) | 23 | 25 (≈ 59.6 µM) | –
C[Si]1(C)OB(O)c2cc(F)c(SC3CC(=O)N(c4ccc(Br)c(C(F)(F)F)c4)C3=O)c(F)c21 (stereo not shown) [Compound 16, 1-(4-Bromo-3-(trifluoromethyl)phenyl)-3-((5,7-difluoro-3-hydroxy-1,1-dimethyl-1,3-dihydrobenzo[c][1,2,5]oxasilaborol-6-yl)thio)pyrrolidine-2,5-dione] | > 200 | 25 | 50 (≈ 88.3 µM) | 97.0±0.2 % of control ± SD | 84.8±2.7 % of control ± SD | 78.5±1.6 % of control ± SD | 62.7±2.5 % of control ± SD | 46.0±1.4 % of control ± SD | 0.4±0.2 % of control ± SD | 0.1±0.0 % of control ± SD | 76.2 (≈ 135 µM) | 20 | 50 (≈ 88.3 µM) | 100 (≈ 177 µM)
C[Si]1(C)OB(O)c2ccc(SC3CC(=O)N(c4ccc(Br)c(C(F)(F)F)c4)C3=O)c(F)c21 (stereo not shown) [Compound 17, 1-(4-Bromo-3-(trifluoromethyl)phenyl)-3-((7-fluoro-3-hydroxy-1,1-dimethyl-1,3-dihydrobenzo[c][1,2,5]oxasilaborol-6-yl)thio)pyrrolidine-2,5-dione] | > 200 | 20 | 100 (≈ 182 µM) | 99.9±4.6 % of control ± SD | 96.1±2.3 % of control ± SD | 87.6±0.2 % of control ± SD | 89.2±8.5 % of control ± SD | 71.2±1.3 % of control ± SD | 29.5±0.3 % of control ± SD | 0.0±0.0 % of control ± SD | 140 (≈ 254 µM) | 19 | 25 (≈ 45.6 µM) | 100 (≈ 182 µM)
C[Si]1(C)OB(O)c2cc(F)c(SCCC(=O)OCCCCCC[n+]3ccccc3)c(F)c21 [Compound 18, 1-(6-((3-((5,7-difluoro-3-hydroxy-1,1-dimethyl-1,3-dihydrobenzo[c][1,2,5]oxasilaborol-6-yl)thio)propanoyl)oxy)hexyl)pyridin-1-ium trifluoromethanesulfonate] | > 400 | – | > 400 | – | – | – | – | – | – | – | – | 19 | 25 | 100
C[Si]1(C)OB(O)c2ccc(SCCC(=O)OCCCCCC[n+]3ccccc3)c(F)c21 [Compound 19, 1-(6-((3-((7-Fluoro-3-hydroxy-1,1-dimethyl-1,3-dihydrobenzo[c][1,2,5]oxasilaborol-6-yl)thio)propanoyl)oxy)hexyl)pyridin-1-ium trifluoromethanesulfonate] | > 400 | – | > 400 | – | – | – | – | – | – | – | – | 20 | 25 | 100
C[Si]1(C)OB(O)c2ccc(SCCS(=O)(=O)c3ccccc3)c(F)c21 [Compound 21, 7-Fluoro-1,1-dimethyl-6-((2-(phenylsulfonyl)ethyl)thio)benzo[c][1,2,5]oxasilaborol-3(1H)-ol] | > 400 | – | 400 (≈ 1010 µM) | – | – | – | – | – | – | – | – | 26 | 12.5 (≈ 31.5 µM) | 200 (≈ 505 µM)
C[Si]1(C)OB(O)c2cc(F)c(S(=O)(=O)Cl)c(F)c21 [Compound 26, 5,7-Difluoro-3-hydroxy-1,1-dimethyl-1,3-dihydrobenzo[c][1,2,5]oxasilaborole-6-sulfonyl chloride] | > 400 | – | > 400 | – | – | – | – | – | – | – | – | 14 | 200 | 400
C[Si]1(C)OB(O)c2cc(F)c(S(N)(=O)=O)c(F)c21 [Compound 27, 5,7-Difluoro-3-hydroxy-1,1-dimethyl-1,3-dihydrobenzo[c][1,2,5]oxasilaborole-6-sulfonamide] | > 400 | – | > 400 | 74.1±3.1 % of control ± SD | 74.1±1.4 % of control ± SD | 79.3±9.5 % of control ± SD | 79.7±7.5 % of control ± SD | 74.3±7.9 % of control ± SD | 68.5±3.4 % of control ± SD | 66.2±2.4 % of control ± SD | > 400 | – | 400 (≈ 1360 µM) | –

Source: article PMC11110727, “Exploiting thiol-functionalized benzosiloxaboroles for achieving diverse substitution patterns – synthesis, characterization and biological evaluation of promising antibacterial agents” (RSC Medicinal Chemistry, 2024)
